In brackets after ≈: the same amount, converted by molar mass. Several values for one entry are separate records, joined by “and”; a condition that tells them apart may be missing. Equal entries are not always repeated. Structures can show the parent of a compound that is named as a salt. Where two headings read alike, the source gives them in different places.
Assays:
[1] = test system: Phytophthora capsici (PHY); assay: In-vitro plant fungicide test; format: cell-based; settings: 25 ppm, Table IVa; for inhibition of growth at 25 ppm: Phytophthora capsici, read-out: % Control at 25 ppm PHY
[2] = test system: Xanthomonas campestris (XAN); assay: In-vitro plant fungicide test; format: cell-based; settings: 25 ppm, Table IVa; for inhibition of growth at 25 ppm: Xanthomonas campestris, read-out: % Control at 25 ppm XAN
[3] = test system: Pseudomonas aerugenosa (PSAE); assay: Minimum inhibitory concentration (MIC), broth two-fold serial dilution test; settings: for MIC: Pseudomonas, read-out: MIC (G-) PSAE, M9G (minimal salts media with glucose); for MIC (G-) PSAE: M9G (minimal salts media with glucose)
Escherichia coli (ECOL) = assay: as above; settings: for MIC: Escherichia coli, read-out: MIC (G-) ECOL, M9G (minimal salts media with glucose); for MIC (G-) ECOL: M9G (minimal salts media with glucose)
Excerpt: When the test is ready to be done, each vessel in the dilution series, except the first vessel, contains an equal volume of compound free broth. The first vessel contains twice the volume of broth with the starting concentration of test compound. One half of the broth from the first vessel is transferred to the second vessel. After being mixed, one half the resulting volume is removed from the second vessel and transferred to the third vessel. The entire cycle is repeated sufficiently to give a series of concentrations amounting to 500, 250, 125, 63, 31, 16, 8, and 4 ppm (or 100, 50, 25, 12.5, 6.2, 3.1, 1.6, and 0.8), respectively.
Each vessel is then inoculated with a cell suspension of the appropriate test organism. Bacteria are grown in broth, fungi on agar slants for a time and at a temperature appropriate to the species being tested, and algae are a mixture of green algae and blue-green bacteria grown in a nutrient media. At the end of the growth period, in the case of bacteria, the broth is vortexed to disperse the cells.
The vessels are then incubated at the appropriate temperature. After the incubation, the vessels are examined for growth/no growth.

THREE FUNGI = assay: MIC test against three fungi in Mycophile Broth, pH 5.0, read after 8 days (Table VII); format: cell-based; settings: for MIC: 192 h
Pythium ultimum (PYU) = assay: In-vitro plant fungicide test; format: cell-based; settings: 25 ppm, Table IVa; for inhibition of growth at 25 ppm: Globisporangium ultimum, read-out: % Control at 25 ppm PYU
[4] = test system: Pseudomonas fluorescens (PSFL); assay: Minimum inhibitory concentration (MIC), broth two-fold serial dilution test; settings: for MIC: Pseudomonas fluorescens, read-out: MIC (G-) PSFL, M9G (minimal salts media with glucose); for MIC (G-) PSFL: M9G (minimal salts media with glucose)
Septoria nodorum (SEP) = assay: In-vitro plant fungicide test; format: cell-based; settings: 25 ppm, Table IVa; for inhibition of growth at 25 ppm: Parastagonospora nodorum, read-out: % Control at 25 ppm SEP
Aspergillus niger (ANIG) = assay: Minimum inhibitory concentration (MIC), broth two-fold serial dilution test; format: cell-based; settings: for MIC: Aspergillus niger
Fusarium roseum (FUS) = assay: In-vitro plant fungicide test; format: cell-based; settings: Table IVa, *=Phytotoxic; for inhibition of growth at 25 ppm: Fusarium sambucinum, read-out: % Control at 25 ppm FUS, 25 ppm
[5] = test system: Aureobasidium pullulans (APUL); assay: Minimum inhibitory concentration (MIC), broth two-fold serial dilution test; format: cell-based; settings: for MIC: Aureobasidium pullulans
Rhizoctonia solani (RHI) = assay: In-vitro plant fungicide test; format: cell-based; settings: 25 ppm, Table IVa; for inhibition of growth at 25 ppm: Rhizoctonia solani, read-out: % Control at 25 ppm RHI
Piricularia oryzae (PIR) = assay: microbe, parasite or virus in culture; format: cell-based; settings: for inhibition of growth at 25 ppm: read-out: % Control at 25 ppm PIR
[6] = test system: Staphylococcus aureus (SAUR); assay: Minimum inhibitory concentration (MIC), broth two-fold serial dilution test; settings: for MIC: Staphylococcus aureus, read-out: MIC (G+) SAUR, M9G (minimal salts media with glucose); for MIC (G+) SAUR: M9G (minimal salts media with glucose)
[7] = test system: Cochliobolus sativus (HEL); assay: In-vitro plant fungicide test; format: cell-based; settings: 25 ppm, Table IVa, *=Phytotoxic; for inhibition of growth at 25 ppm: Bipolaris sorokiniana, read-out: % Control at 25 ppm HEL
Botrytis cinerea (BOC) = assay: In-vitro plant fungicide test; format: cell-based; settings: 25 ppm, Table IVa, *=Phytotoxic; for inhibition of growth at 25 ppm: Botrytis cinerea, read-out: % Control at 25 ppm BOC
[8] = Aspergillus niger, serial dilutions from 50 ppm, read after 8 days of incubation, read-out: MIC ANIG
[9] = Aureobasidium pullulans, serial dilutions from 50 ppm, read after 8 days of incubation, read-out: MIC APUL
[10] = Gloeophyllum trabeum, serial dilutions from 50 ppm, read after 8 days of incubation, read-out: MIC GTRA
[11] = M9G (minimal salts media with glucose), Table IIIa, read-out: MIC (F) ANIG
[12] = M9G (minimal salts media with glucose), Table IIIa, read-out: MIC (F) APUL
[13] = Aspergillus niger, serial dilutions from 50 ppm, read after 8 days of incubation
[14] = Aureobasidium pullulans, serial dilutions from 50 ppm, read after 8 days of incubation
[15] = Aspergillus niger, pH 5, read-out: MIC ANIG, Aspergillus niger, serial dilutions from 50 ppm, read after 8 days of incubation
[16] = Aureobasidium pullulans, pH 5, read-out: MIC APUL, Aureobasidium pullulans, serial dilutions from 50 ppm, read after 8 days of incubation
[17] = Gloeophyllum trabeum, pH 5, read-out: MIC GTRA, Gloeophyllum trabeum, serial dilutions from 50 ppm, read after 8 days of incubation
[18] = M9G (minimal salts media with glucose), Table IIIa, trifluoroacetate
[19] = M9G (minimal salts media with glucose), Table IIIa
[20] = Table IIIc, iodopropargyl esters of peptides
[21] = M9G (minimal salts media with glucose), Table IIIc, iodopropargyl esters of peptides, read-out: MIC (F) ANIG
[22] = M9G (minimal salts media with glucose), Table IIIc, iodopropargyl esters of peptides, read-out: MIC (F) APUL
[23] = M9G (minimal salts media with glucose), Table IIIc, iodopropargyl esters of peptides

Row | SMILES | inhibition of growth at 25 ppm [1] [%] | inhibition of growth at 25 ppm [2] [%] | MIC ([3]; Table IIIa) [µg/mL] | MIC (Escherichia coli (ECOL); Table IIIa) [µg/mL] | MIC (THREE FUNGI; [8]) [µg/mL] | MIC (THREE FUNGI; [9]) [µg/mL] | MIC (THREE FUNGI; [10]) [µg/mL] | inhibition of growth at 25 ppm (Pythium ultimum (PYU)) [%] | inhibition of growth at 25 ppm (Septoria nodorum (SEP)) [%] | inhibition of growth at 25 ppm (Fusarium roseum (FUS)) [%] | inhibition of growth at 25 ppm (Rhizoctonia solani (RHI)) [%] | inhibition of growth at 25 ppm (Piricularia oryzae (PIR)) [%] | MIC ([6]; Table IIIa) [µg/mL] | inhibition of growth at 25 ppm [7] [%] | inhibition of growth at 25 ppm (Botrytis cinerea (BOC)) [%] | further results
1 | CC(C)(C)OC(=O)N[C@@H](CSCc1ccccc1)C(=O)OCC#CI [Compound 4, N-t-butoxycarbonyl-S-benzyl-L-cysteine iodopropargyl ester] | 100 | 0 | > 100 | > 100 | 50 (≈ 105 µM) | 50 (≈ 105 µM) | 6.2 (≈ 13 µM) | 100 | 100 | 95 | 100 | 100 | 25 | – | – | MIC ([4]; Table IIIa): > 10 µg/mL; MIC (Aspergillus niger (ANIG); [11]): 3 µg/mL; % Control at 25 ppm FUS (Fusarium roseum (FUS)): 100%; MIC [5, 12]: 3 µg/mL
2 | C[C@@H](OCc1ccccc1)[C@H](NC(=O)OC(C)(C)C)C(=O)OCC#CI [Compound 5, N-t-butoxycarbonyl-O-benzyl-L-threonine iodopropargyl ester] | 50 | 0 | > 100 | > 100 | > 50 | > 50 | 6.2 (≈ 13.1 µM) | 0 | 90 | 95 | 100 | 100 | 63 | – | – | MIC ([4]; Table IIIa): > 100 µg/mL; % Control at 25 ppm SEP (Septoria nodorum (SEP)): 75%; MIC (Aspergillus niger (ANIG); [11]): 25 µg/mL; MIC [5, 12]: < 0.8 µg/mL
3 | C#CCSC[C@H](NC(=O)OC(C)(C)C)C(=O)OCC#CI [Compound 6, N-t-butoxycarbonyl-S-propargyl-L-cysteine iodopropargyl ester] | – | – | – | – | – | – | – | – | – | – | – | – | – | – | – | % Control at 25 ppm PHY [1]: 100%; % Control at 25 ppm HEL [7]: 100%; % Control at 25 ppm XAN [2]: 0%; MIC ANIG (THREE FUNGI; [13]): 12.5 ppm; MIC APUL (THREE FUNGI; [14]): 25 ppm; MIC GTRA (THREE FUNGI; Gloeophyllum trabeum, serial dilutions from 50 ppm, read after 8 days of incubation): 3.2 ppm; % Control at 25 ppm PYU (Pythium ultimum (PYU)): 100%; % Control at 25 ppm SEP (Septoria nodorum (SEP)): 100%; % Control at 25 ppm FUS (Fusarium roseum (FUS)): 100%; % Control at 25 ppm BOC (Botrytis cinerea (BOC)): 0%; % Control at 25 ppm RHI (Rhizoctonia solani (RHI)): 100%; % Control at 25 ppm PIR (Piricularia oryzae (PIR)): 100%; MIC (G+) SAUR ([6]; Table IIIa): >100 PPM and 64 PPM
4 | NCC(=O)OCC#CI [Compound 7, glycine iodopropargyl ester trifluoroacetate] | 100 | 0 | 100 | 100 | – | – | – | 100 | 100 | 100 | 100 | 100 | – | 100 | 100 | MIC (G-) PSAE ([3]; Table IIIa, trifluoroacetate): 125 PPM; MIC (G-) ECOL (Escherichia coli (ECOL); Table IIIa, trifluoroacetate): 64 PPM; MIC (THREE FUNGI; [15]): 25 µg/mL; MIC (THREE FUNGI; [16]): 50 µg/mL; MIC (THREE FUNGI; [17]): 12.5 µg/mL
5 | C[C@H](N)C(=O)OCC#CI [Compound 8, L-alanine iodopropargyl ester trifluoroacetate] | 100 | 0 | 125 | 64 | – | – | – | 100 | 100 | 100 | 100 | 100 | – | 100 | 100 | MIC (G-) PSAE ([3]; Table IIIa, trifluoroacetate): >100 PPM; MIC (G-) ECOL (Escherichia coli (ECOL); Table IIIa, trifluoroacetate): >100 PPM; MIC (THREE FUNGI; [15]): 12.5 µg/mL; MIC (THREE FUNGI; [16]): 25 µg/mL; MIC (THREE FUNGI; [17]): 12.5 µg/mL; MIC (F) ANIG (Aspergillus niger (ANIG); [18]): <4 PPM and 3 PPM; MIC (F) APUL [5, 18]: <4 PPM and 2 PPM
6 | C[C@H](N)C(=O)OCC#CI [Compound 22, L-alanine iodopropargyl ester] | – | – | – | – | – | – | – | – | – | – | – | – | – | – | – | % Control at 25 ppm XAN [2]: 0%; MIC (G-) PSAE ([3]; Table IIIa): 100 PPM; MIC (G-) ECOL (Escherichia coli (ECOL); Table IIIa): 100 PPM; MIC ANIG (THREE FUNGI; [13]): 12.5 ppm; MIC APUL (THREE FUNGI; [14]): 50 ppm; MIC (G-) PSFL ([4]; Table IIIa): 100 PPM; % Control at 25 ppm SEP (Septoria nodorum (SEP)): 100%; MIC (F) ANIG (Aspergillus niger (ANIG); [19]): <0.8 PPM; MIC (F) APUL [5, 19]: <0.8 PPM; % Control at 25 ppm PIR (Piricularia oryzae (PIR)): 100%; MIC (G+) SAUR ([6]; Table IIIa): 100 PPM
7 | C[C@@H](NC(=O)OC(C)(C)C)C(=O)OCC#CI [Compound 23, N-t-butoxycarbonyl-D-alanine iodopropargyl ester] | – | 0 | – | – | 6.2 (≈ 17.6 µM) | 25 (≈ 70.8 µM) | 1.6 (≈ 4.53 µM) | 100 | 100 | 100 | 100 | 100 | 63 | 100 | 100 | MIC (Aspergillus niger (ANIG); [11]): < 4 µg/mL; MIC [5, 12]: < 4 µg/mL; MIC (G+) SAUR ([6]; Table IIIa): 32 PPM
8 | C[C@@H](N)C(=O)OCC#CI [Compound 24, D-alanine iodopropargyl ester trifluoroacetate] | – | 0 | – | 32 | – | – | – | 100 | 100 | 75 | 100 | 100 | 125 | 100 | 0 | MIC (G-) ECOL (Escherichia coli (ECOL); Table IIIa, trifluoroacetate): 63 PPM; MIC (THREE FUNGI; [15]): 12.5 µg/mL; MIC (THREE FUNGI; [16]): 25 µg/mL; MIC (THREE FUNGI; [17]): 12.5 µg/mL; MIC (G-) PSFL ([4]; Table IIIa, trifluoroacetate): 32 PPM; MIC ([4]; Table IIIa): 63 µg/mL; MIC (Aspergillus niger (ANIG); read-out: MIC (F) ANIG, M9G (minimal salts media with glucose), Table IIIa): < 4 µg/mL; MIC ([5]; read-out: MIC (F) APUL, M9G (minimal salts media with glucose), Table IIIa): < 4 µg/mL; MIC (G+) SAUR ([6]; Table IIIa, trifluoroacetate): 63 PPM
9 | C[C@@H](NC(=O)OC(C)(C)C)C(=O)N[C@H](C)C(=O)OCC#CI [Compound 25, N-t-butoxycarbonyl-D-alanyl-D-alanine iodopropargyl ester] | – | – | – | – | 50 (≈ 118 µM) | > 50 | 6.2 (≈ 14.6 µM) | – | – | – | – | – | – | – | – | MIC (Escherichia coli (ECOL); [20]): 63 µg/mL; MIC (Aspergillus niger (ANIG); [21]): < 4 µg/mL; MIC [5, 22]: < 4 µg/mL
10 | C[C@H](NC(=O)[C@@H](C)NC(=O)OC(C)(C)C)C(=O)OCC#CI [Compound 26, N-t-butoxycarbonyl-D-alanyl-L-alanine iodopropargyl ester] | – | – | – | – | 25 (≈ 58.9 µM) | 50 (≈ 118 µM) | 6.2 (≈ 14.6 µM) | – | – | – | – | – | – | – | – | MIC (Escherichia coli (ECOL); [20]): 63 µg/mL; MIC (G-) ECOL (Escherichia coli (ECOL); [20]): 32 PPM; MIC (F) ANIG (Aspergillus niger (ANIG); [23]): <4 PPM; MIC [5, 22]: < 4 µg/mL; MIC (F) APUL [5, 23]: 8 PPM
11 | C[C@H](NC(=O)CNC(=O)OC(C)(C)C)C(=O)OCC#CI [Compound 27, N-t-butoxycarbonylglycyl-L-alanine iodopropargyl ester] | – | 0 | – | – | 25 (≈ 60.9 µM) | 50 (≈ 122 µM) | 6.2 (≈ 15.1 µM) | 100 | 100 | 100 | 100 | 0 | – | 100 | 75 | MIC [3, 20]: 250 µg/mL; MIC (Escherichia coli (ECOL); [20]): 250 µg/mL; MIC [4, 20]: 125 µg/mL; MIC (Aspergillus niger (ANIG); [21]): < 4 µg/mL; MIC [5, 22]: 8 µg/mL; MIC [6, 20]: 125 µg/mL
